Key:
β-catenin/Tcf-4 = test: cells; format: cell-based; settings: Homo sapiens, 24 hours of incubation with compound, ratio Firefly/Renilla luciferase
Description: Background cell line: SW480 colorectal carcinoma DNA constructs:
1) Tcf-4-Luc: Tcf-4 binding sites driving Firefly Luciferase in the pGL3 vector—to measure the activity of β-catenin/Tcf-4;
(§1) 2) SV40-Luc: SV40 binding site driving Firefly Luciferase in the pGL3 vector—as a control for non-specific inhibitors; and
(§2) 3) SV40-R-Luc: SV40 binding site driving Renilla Luciferase in the pGL3 vector—as an internal control for cell number and toxicity.
This screen uses 3 cell lines derived from SW480 and selected to contain the above luciferase reporters integrated into their chromosomes as follows: […]
(§3) Cells: Tcf22C11 and SV5A8 were grown in the presence of 500 μg/ml G418 and Tcf 33.13 was grown in the presence of 500 μg/ml G418+125 μg/ml Zeocin to maintain the integrated reporters. The cells were trypsinized and plated at 1×10^4 cells/well in opaque 96 well plates.
The compounds were diluted as follows: The compounds were stored frozen in dimethyl sulfoxide (DMSO) at […]. Compounds were initially titrated in DMSO to make a 1000×DMSO stock solution. Compounds were then diluted 1:25 into media/DMSO (DMEM+10% FBS+9% DMSO). Using the Biomek Multimek, the diluted compounds were mixed well and immediately added to the plated cells in a 1:40 dilution. The final concentration of DMSO in the assay plates was 0.316% DMSO.
(§4) Assay Readout: The luciferase signal was detected using a luciferase detection kit from Promega. Until December 2003, Promega's Dual-Luciferase® Reporter (DLR™) Assay System was used to detect luciferase activity. Briefly, after 24 hours of incubation with compound, culture media was removed by aspiration and 20 ul of passive lysis buffer (Promega) per well was added. The plates were shaken for 15 min. Firefly substrate was then added and the resulting luminescence was immediately read on a CCD camera imaging device or a luminometer. After quantifying the firefly luminescence, the reaction was quenched, and the Renilla luciferase reaction was initiated simultaneously by adding Stop & Glo® Reagent to the same sample. Renilla luciferase was then quantified using the CCD camera or luminometer.
Promega's Dual-Glo™ Luciferase Assay System can be used for luciferase detection. […] Briefly, after 24 hours of incubation with compound, culture media was removed by aspiration and 75 ul of fresh medium was added. Add 75 ul of Dual-Glo Luciferase Reagent (Promega) to each well and mix by shaking for 10 minutes on a plate shaker. Then, measure the firefly luminescence on a CCD camera imaging device or a luminometer. After quantifying the firefly luminescence, add 75 ul of Dual-Glo Stop & Glo Reagent (Promega) to each well and mix for 10 minutes. Renilla luciferase was then quantified using the CCD camera or luminometer.
(§5) This assay was meant to confirm primary leads and determine IC50s. Compounds were tested at titrated dilutions. The raw data for this assay was reported in protocol 2463-B. Protocol 2463-C contains the IC50 calculations based on the raw data. The data calculations were done as follows:
(§6) The data was expressed as % of control for both Firefly and Renilla Luciferase. The ratio of FF/Renilla (F/R) was then calculated and averaged between duplicate plates. The data was then plotted using LSW Data Analysis in Microsoft Excel. IC50s were determined by plotting the data in the LSW Data Analysis program using model 33. The IC50s (nM) for all three cell lines were reported.

SV40-Luc = SV40-Luc control luciferase reporter assay, SV 5A8 cell line (SV40-Luc and SV40-R-Luc), control for non-specific inhibitors; format: cell-based, human; settings: Homo sapiens, SV5A8, 24 h, SV 5A8 cells derived from SW480; 24 hours of incubation with compound; ratio Firefly/Renilla luciferase
Description: Background cell line: SW480 colorectal carcinoma DNA constructs: […]
as §1, §2
This screen uses 3 cell lines derived from SW480 and selected to contain the above luciferase reporters integrated into their chromosomes as follows:
SV 5A8—SV40-Luc and SV40-R-Luc
as §3
Compounds: 20-24 hours after cell plating, compounds were added at titrated concentrations between […]. The compounds were diluted as follows: The compounds were stored frozen in dimethyl sulfoxide (DMSO) at […]. Compounds were initially titrated in DMSO to make a 1000×DMSO stock solution. Compounds were then diluted 1:25 into media/DMSO (DMEM+10% FBS+9% DMSO). Using the Biomek Multimek, the diluted compounds were mixed well and immediately added to the plated cells in a 1:40 dilution. The final concentration of DMSO in the assay plates was 0.316% DMSO.
as §4
Promega's Dual-Glo™ Luciferase Assay System can be used for luciferase detection. It was similar to the DLR Assay, however, unlike the DLR which has to be read immediately due to decaying signal, the signal in the Dual-Glo™ Luciferase Assay was stable for up to 2 hours. Briefly, after 24 hours of incubation with compound, culture media was removed by aspiration and 75 ul of fresh medium was added. Add 75 ul of Dual-Glo Luciferase Reagent (Promega) to each well and mix by shaking for 10 minutes on a plate shaker. Then, measure the firefly luminescence on a CCD camera imaging device or a luminometer. After quantifying the firefly luminescence, add 75 ul of Dual-Glo Stop & Glo Reagent (Promega) to each well and mix for 10 minutes. Renilla luciferase was then quantified using the CCD camera or luminometer.
as §5, §6

[1] = SW480, 24 h, Tcf 33.13 cells derived from SW480
[2] = Tcf22C11, 24 h, Tcf 22C11 cells derived from SW480

| SMILES | IC50 (β-catenin/Tcf-4; [1]) | IC50 (β-catenin/Tcf-4; [2]) | IC50 (SV40-Luc) |
| --- | --- | --- | --- |
| CNc1nc(NCc2ccc(NC(=O)c3cccnc3Cl)cc2)c2ccccc2n1 [Example 7, 2-chloro-N-[4-({[2-(methylamino)quinazolin-4-yl]amino}methyl)phenyl]nicotinamide] | > 2980 nM | > 2980 nM | > 23900 nM |
| Cc1ccc2nc(N(C)C)nc(NCc3ccc(NC(=O)C4CCN(Cc5ccccc5)CC4)cc3)c2c1 [Example 148, 1-benzyl-N-[4-({[2-(dimethylamino)-6-methylquinazolin-4-yl]amino}methyl)phenyl]piperidine-4-carboxamide] | 1030 nM | 1070 nM | > 9170 nM |
| Cc1ccc2c(NCc3ccc(NC(=O)c4ccc(F)cc4)cc3)nc(N(C)C)nc2c1 [Example 199, N-[4-({[2-(dimethylamino)-7-methylquinazolin-4-yl]amino}methyl)phenyl]-4-fluorobenzamide] |  |  | > 2910 nM |
| CN(C)Cc1ccc2c(NCc3ccc(NC(=O)c4ccc(F)cc4)cc3)nc(N(C)C)nc2c1 [Example 91, N-{4-[({2-(dimethylamino)-7-[(dimethylamino)methyl]quinazolin-4-yl}amino)methyl]phenyl}-4-fluorobenzamide] |  |  | > 9170 nM |
| CNc1nc(NCc2ccc(NC(=O)c3ccc(F)cc3)cc2)c2cccc(C)c2n1 [Example 190, 4-fluoro-N-[4-({[8-methyl-2-(methylamino)quinazolin-4-yl]amino}methyl)phenyl]benzamide] |  |  | > 3010 nM |
| CNc1nc(NCc2ccc(NC(=O)c3ccc(C(F)(F)F)cc3)cc2)c2ccccc2n1 [Example 20, N-[4-({[2-(methylamino)quinazolin-4-yl]amino}methyl)phenyl]-4-(trifluoromethyl)benzamide] |  |  | > 1380 nM |
| CN(C)c1nc(NCc2ccc(NC(=O)c3ccc(F)cc3)cc2)c2ccc(C#N)cc2n1 [Example 89, N-[4-({[7-cyano-2-(dimethylamino)quinazolin-4-yl]amino}methyl)phenyl]-4-fluorobenzamide] |  |  | > 21000 nM |
| Cc1ccc2c(NCc3ccc(NC(=O)c4ccc(F)cc4)cc3)nc(N3CCN[C@H](C)C3)nc2c1 [Example 225, 4-fluoro-N-{4-[({7-methyl-2-[(3R)-3-methylpiperazin-1-yl]quinazolin-4-yl}amino)methyl]phenyl}benzamide] |  |  | > 2580 nM |
| CC(O)c1ccc2c(NCc3ccc(NC(=O)c4ccc(F)cc4)cc3)nc(N(C)C)nc2c1 (stereo not shown) [Example 95, N-[4-({[2-(dimethylamino)-7-(1-hydroxyethyl)quinazolin-4-yl]amino}methyl)phenyl]-4-fluorobenzamide] |  |  | > 20200 nM |
| CN(C)c1nc(NCc2ccc(NC(=O)c3ccc(F)cc3)cc2)c2ccc(C=O)cc2n1 [Example 92, N-[4-({[2-(dimethylamino)-7-formylquinazolin-4-yl]amino}methyl)phenyl]-4-fluorobenzamide] |  |  | > 17900 nM |
| CNc1nc(NCc2ccc(NC(=O)c3ccc(C)cc3)cc2)c2ccccc2n1 [Example 12, 4-methyl-N-[4-({[2-(methylamino)quinazolin-4-yl]amino}methyl)phenyl]benzamide] |  |  | > 25200 nM |
| Cc1ccc2c(NCc3ccc(NC(=O)c4ccc(F)cc4)cc3)nc(N3CCN(C)CC3)nc2c1 [Example 204, 4-fluoro-N-[4-({[7-methyl-2-(4-methylpiperazin-1-yl)quinazolin-4-yl]amino}methyl)phenyl]benzamide] |  |  | > 10300 nM |
| CNc1nc(NCc2ccc(NC(=O)c3ccc(Cl)nc3)cc2)c2ccc(C)cc2n1 [Example 264, 6-chloro-N-[4-({[7-methyl-2-(methylamino)quinazolin-4-yl]amino}methyl)phenyl]nicotinamide] |  |  | > 1440 nM |
| CNc1nc(NCc2ccc(NC(=O)c3ccnc(Cl)c3)cc2)c2ccccc2n1 [Example 4, 2-chloro-N-[4-({[2-(methylamino)quinazolin-4-yl]amino}methyl)phenyl]isonicotinamide] |  |  | > 2980 nM |
| CNc1nc(NCc2ccc(NC(=O)c3ccc(F)cc3)cc2)c2c(C)cccc2n1 [Example 192, 4-fluoro-N-[4-({[5-methyl-2-(methylamino)quinazolin-4-yl]amino}methyl)phenyl]benzamide] |  |  | > 3010 nM |

Further lines, results first:

| IC50 (β-catenin/Tcf-4; [1]) | IC50 (β-catenin/Tcf-4; [2]) | IC50 (SV40-Luc) | SMILES |
| --- | --- | --- | --- |
| 287 nM | 437 nM | > 4490 nM | C=Cc1ccc2nc(N(C)C)nc(NCc3ccc(NC(=O)C4CCN(Cc5ccccc5)CC4)cc3)c2c1 [Example 75, 1-benzyl-N-[4-({[2-(dimethylamino)-6-vinylquinazolin-4-yl]amino}methyl)phenyl]-piperidine-4-carboxamide] |
|  |  | > 5440 nM | CNc1nc(NCc2ccc(NC(=O)c3ccc(-c4ccccc4)cc3)cc2)c2ccccc2n1 [Example 15, N-[4-({[2-(methylamino)quinazolin-4-yl]amino}methyl)phenyl]biphenyl-4-carboxamide] |
|  |  | 2190 nM | CNc1nc(NCc2ccc(NC(=O)c3ccc(Cl)cc3)cc2)c2ccccc2n1 [Example 10, 4-chloro-N-[4-({[2-(methylamino)quinazolin-4-yl]amino}methyl)phenyl]benzamide] |
|  |  | > 2830 nM | Cc1ccc2c(NCc3ccc(NC(=O)c4ccc(F)cc4)cc3)nc(N3CCC3)nc2c1 [Example 202, N-(4-{[(2-azetidin-1-yl-7-methylquinazolin-4-yl)amino]methyl}phenyl)-4-fluorobenzamide] |
|  |  | > 778 nM | CNc1nc(NCc2ccc(NC(=O)c3ccc(F)cc3)cc2)c2ccccc2n1 [Example 13, 4-fluoro-N-[4-({[2-(methylamino)quinazolin-4-yl]amino}methyl)phenyl]benzamide] |
|  |  | > 2600 nM | CCc1ccc2c(NCc3ccc(NC(=O)c4ccc(F)cc4)cc3)nc(N(C)C)nc2c1 [Example 88, N-[4-({[2-(dimethylamino)-7-ethylquinazolin-4-yl]amino}methyl)phenyl]-4-fluorobenzamide] |
|  |  | > 5980 nM | CNc1nc(NCc2ccc(NC(=O)c3cccc(Cl)c3)cc2)c2ccccc2n1 [Example 11, 3-chloro-N-[4-({[2-(methylamino)quinazolin-4-yl]amino}methyl)phenyl]benzamide] |
|  |  | > 10600 nM | Cc1ccc2c(NCc3ccc(NC(=O)c4ccc(F)cc4)cc3)nc(N3CCOCC3)nc2c1 [Example 207, 4-fluoro-N-(4-{[(7-methyl-2-morpholin-4-ylquinazolin-4-yl)amino]methyl}phenyl)benzamide] |
|  |  | > 2660 nM | Cc1ccc2c(NCc3ccc(NC(=O)c4ccc(F)cc4)cc3)nc(N3CCNCC3)nc2c1 [Example 208, 4-fluoro-N-(4-{[(7-methyl-2-piperazin-1-ylquinazolin-4-yl)amino]methyl}phenyl)benzamide] |
|  |  | > 5790 nM | CNc1nc(NCc2ccc(NC(=O)c3ccc(Cl)cc3)cc2)c2cc(C)ccc2n1 [Example 18, 4-chloro-N-[4-({[6-methyl-2-(methylamino)quinazolin-4-yl]amino}methyl)phenyl]benzamide] |

Reference: US20090004185A1, “AMINO-SUBSTITUTED QUINAZOLINE DERIVATIVES AS INHIBITORS OF BETA-CATENIN/TCF-4 PATHWAY AND CANCER TREATMENT AGENTS” (WYETH, priority 2007, published 2009)
